From PubChem BioAssay AID1963424 (Molecular Pharmacology Branch, DTP, NCI, 2024)

Tested on: 327498-153-R-J2-PDC complex spheroid growth, % test/control
Assay: Anticancer human tumor 327498-153-R-J2-PDC patient-derived uterine carcinosarcoma cell line growth inhibition [Asc]
Settings: for IC50: curve of first compound; for viability, T/C: stronger effect = lower value
Method in brief: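 Tumor cells were grown as multicellular spheroids with stromal HUVEC and mesenchymal stem cells and treated singly or in combination. Concentrations fell in half-log steps from the clinical Cmax, or from 10 microM where none was known.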

[1] = second compound 0.1 µM, first compound 0.0316 µM
[2] = second compound 0.1 µM, first compound 0.1 µM
[3] = second compound 0.1 µM, first compound 0.316 µM
[4] = second compound 0.1 µM, first compound 1 µM
[5] = second compound 0.316 µM, first compound 0.0316 µM
[6] = second compound 0.316 µM, first compound 0.1 µM
[7] = second compound 0.316 µM, first compound 0.316 µM
[8] = second compound 0.316 µM, first compound 1 µM
[9] = second compound 1 µM, first compound 0.0316 µM
[10] = second compound 1 µM, first compound 0.1 µM
[11] = second compound 1 µM, first compound 0.316 µM
[12] = second compound 1 µM, first compound 1 µM
[13] = second compound 3.16 µM, first compound 0.0316 µM
[14] = second compound 3.16 µM, first compound 0.1 µM
[15] = second compound 3.16 µM, first compound 0.316 µM
[16] = second compound 3.16 µM, first compound 1 µM
[17] = second compound 10 µM, first compound 0.0316 µM
[18] = second compound 10 µM, first compound 0.1 µM
[19] = second compound 10 µM, first compound 0.316 µM
[20] = second compound 10 µM, first compound 1 µM
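Note: spheroids exposed to compound for 7 days after 3 days of growth.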
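Throughout, for viability, T/C: 100% = DMSO vehicle control wells.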

SMILES: C#Cc1c(F)ccc2cc(O)cc(-c3ncc4c(N5CC6CCC(C5)N6)nc(OCC56CCCN5CC(F)C6)nc4c3F)c12 (stereo not given) + Cc1c(S(C)(=O)=O)c(-c2cc(F)cc(N3CCN(c4ccc(NS(=O)(=O)c5ccc(NC(CCN6CCC(C(=O)OCCCP(=O)(O)O)CC6)CSc6ccccc6)c(S(=O)(=O)C(F)(F)F)c5)cc4)CC3)c2)c(-c2ccc(Cl)cc2)n1C(C)C
- IC50 (second compound 0.1 µM): > 10 µM
- IC50 (second compound 0.316 µM): 5.99 µM
- IC50 (second compound 1 µM): 3.18 µM
- IC50 (second compound 3.16 µM): 5.04 µM
- IC50 (second compound 10 µM): > 10 µM
- viability, T/C [1]: 97.2%
- viability, T/C [2]: 107%
- viability, T/C [3]: 82.5%
- viability, T/C [4]: 75.1%
- viability, T/C (second compound 0.1 µM, first compound 3.16 µM): 61.7%
- viability, T/C (second compound 0.1 µM, first compound 10 µM): 50.1%
- viability, T/C [5]: 102%
- viability, T/C [6]: 88.9%
- viability, T/C [7]: 88.3%
- viability, T/C [8]: 65.8%
- viability, T/C (second compound 0.316 µM, first compound 3.16 µM): 53.8%
- viability, T/C (second compound 0.316 µM, first compound 10 µM): 47.3%
- viability, T/C [9]: 90.6%
- viability, T/C [10]: 101%
- viability, T/C [11]: 81%
- viability, T/C [12]: 71.1%
- viability, T/C (second compound 1 µM, first compound 3.16 µM): 47.9%
- viability, T/C (second compound 1 µM, first compound 10 µM): 43.8%
- viability, T/C [13]: 96.6%
- viability, T/C [14]: 87.5%
- viability, T/C [15]: 70.8%
- viability, T/C [16]: 69.7%
- viability, T/C (second compound 3.16 µM, first compound 3.16 µM): 51.4%
- viability, T/C (second compound 3.16 µM, first compound 10 µM): 44.4%
- viability, T/C [17]: 166%
- viability, T/C [18]: 165%
- viability, T/C [19]: 150%
- viability, T/C [20]: 145%
- viability, T/C (second compound 10 µM, first compound 3.16 µM): 133%
- viability, T/C (second compound 10 µM, first compound 10 µM): 86.6%

SMILES: CNC(C)C(=O)NC1CN(S(=O)(=O)c2cccc(S(=O)(=O)N3CCC4CCC(C(=O)NC(c5ccccc5)c5ccccc5)N4C(=O)C(NC(=O)C(C)NC)C3)c2)CCC2CCC(C(=O)NC(c3ccccc3)c3ccccc3)N2C1=O (stereo not given) + Cc1c(S(C)(=O)=O)c(-c2cc(F)cc(N3CCN(c4ccc(NS(=O)(=O)c5ccc(NC(CCN6CCC(C(=O)OCCCP(=O)(O)O)CC6)CSc6ccccc6)c(S(=O)(=O)C(F)(F)F)c5)cc4)CC3)c2)c(-c2ccc(Cl)cc2)n1C(C)C
- IC50 (second compound 0.1 µM): > 1 µM
- IC50 (second compound 0.316 µM): > 1 µM
- IC50 (second compound 1 µM): > 1 µM
- IC50 (second compound 3.16 µM): > 1 µM
- IC50 (second compound 10 µM): > 1 µM
- viability, T/C (second compound 0.1 µM, first compound 0.00316 µM): 94.1%
- viability, T/C (second compound 0.1 µM, first compound 0.01 µM): 91.2%
- viability, T/C [1]: 98%
- viability, T/C [2]: 92.3%
- viability, T/C [3]: 93.8%
- viability, T/C [4]: 82.4%
- viability, T/C (second compound 0.316 µM, first compound 0.00316 µM): 93.1%
- viability, T/C (second compound 0.316 µM, first compound 0.01 µM): 93.3%
- viability, T/C [5]: 96.6%
- viability, T/C [6]: 87.2%
- viability, T/C [7]: 87.7%
- viability, T/C [8]: 83.9%
- viability, T/C (second compound 1 µM, first compound 0.00316 µM): 100%
- viability, T/C (second compound 1 µM, first compound 0.01 µM): 90.6%
- viability, T/C [9]: 97%
- viability, T/C [10]: 80.3%
- viability, T/C [11]: 82.1%
- viability, T/C [12]: 92.2%
- viability, T/C (second compound 3.16 µM, first compound 0.00316 µM): 84.4%
- viability, T/C (second compound 3.16 µM, first compound 0.01 µM): 90.8%
- viability, T/C [13]: 88.4%
- viability, T/C [14]: 86%
- viability, T/C [15]: 89.8%
- viability, T/C [16]: 85%
- viability, T/C (second compound 10 µM, first compound 0.00316 µM): 173%
- viability, T/C (second compound 10 µM, first compound 0.01 µM): 166%
- viability, T/C [17]: 156%
- viability, T/C [18]: 146%
- viability, T/C [19]: 153%
- viability, T/C [20]: 136%

SMILES: Cc1nc(N2CCC3(CC2)COC(C)C3N)c(CO)nc1Sc1ccnc(N)c1Cl (stereo not given) + Cc1c(S(C)(=O)=O)c(-c2cc(F)cc(N3CCN(c4ccc(NS(=O)(=O)c5ccc(NC(CCN6CCC(C(=O)OCCCP(=O)(O)O)CC6)CSc6ccccc6)c(S(=O)(=O)C(F)(F)F)c5)cc4)CC3)c2)c(-c2ccc(Cl)cc2)n1C(C)C
- IC50 (second compound 0.1 µM): 1.56 µM
- IC50 (second compound 0.316 µM): 0.625 µM
- IC50 (second compound 1 µM): 0.594 µM
- IC50 (second compound 3.16 µM): 0.829 µM
- IC50 (second compound 10 µM): > 3 µM
- viability, T/C (second compound 0.1 µM, first compound 0.00949 µM): 98.7%
- viability, T/C (second compound 0.1 µM, first compound 0.03 µM): 90.4%
- viability, T/C (second compound 0.1 µM, first compound 0.0949 µM): 83.8%
- viability, T/C (second compound 0.1 µM, first compound 0.3 µM): 65.8%
- viability, T/C (second compound 0.1 µM, first compound 0.949 µM): 54.8%
- viability, T/C (second compound 0.1 µM, first compound 3 µM): 44.5%
- viability, T/C (second compound 0.316 µM, first compound 0.00949 µM): 94.9%
- viability, T/C (second compound 0.316 µM, first compound 0.03 µM): 94.2%
- viability, T/C (second compound 0.316 µM, first compound 0.0949 µM): 70.2%
- viability, T/C (second compound 0.316 µM, first compound 0.3 µM): 59.5%
- viability, T/C (second compound 0.316 µM, first compound 0.949 µM): 46.6%
- viability, T/C (second compound 0.316 µM, first compound 3 µM): 38.9%
- viability, T/C (second compound 1 µM, first compound 0.00949 µM): 95.3%
- viability, T/C (second compound 1 µM, first compound 0.03 µM): 93.6%
- viability, T/C (second compound 1 µM, first compound 0.0949 µM): 68.6%
- viability, T/C (second compound 1 µM, first compound 0.3 µM): 58.4%
- viability, T/C (second compound 1 µM, first compound 0.949 µM): 47.1%
- viability, T/C (second compound 1 µM, first compound 3 µM): 38.3%
- viability, T/C (second compound 3.16 µM, first compound 0.00949 µM): 98%
- viability, T/C (second compound 3.16 µM, first compound 0.03 µM): 92%
- viability, T/C (second compound 3.16 µM, first compound 0.0949 µM): 65.1%
- viability, T/C (second compound 3.16 µM, first compound 0.3 µM): 64.6%
- viability, T/C (second compound 3.16 µM, first compound 0.949 µM): 47%
- viability, T/C (second compound 3.16 µM, first compound 3 µM): 42.5%
- viability, T/C (second compound 10 µM, first compound 0.00949 µM): 179%
- viability, T/C (second compound 10 µM, first compound 0.03 µM): 178%
- viability, T/C (second compound 10 µM, first compound 0.0949 µM): 145%
- viability, T/C (second compound 10 µM, first compound 0.3 µM): 142%
- viability, T/C (second compound 10 µM, first compound 0.949 µM): 138%
- viability, T/C (second compound 10 µM, first compound 3 µM): 117%
